According to patent US20230085307A1, “PYRIDAZINONE COMPOUND AND HERBICIDE” (NISSAN CHEMICAL CORPORATION, priority 2019, published 2023):

Key:
late watergrass [1] = test: Test Example 1: herbicidal activity, application before weed generation under submerged conditions (Table 16, symbol A); format: in vivo, late watergrass (Echinochloa oryzicola); details: for Herbicidal effect, A: late watergrass: amount of applied herbicide 320 g/ha
Outline: (§1)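 Alluvial soil was flooded to 4 cm depth, weed seeds were sown mixed and 2.5-leaf rice seedlings were transplanted. On sowing day, the compound's emulsion, diluted in water to a set dose, was applied to the water surface. Plants grew at 25–30 °C and were scored 0–5 after three weeks.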

Japanese bulrush [2] = test: Test Example 1: herbicidal activity, application before weed generation under submerged conditions (Table 16, symbol B); format: in vivo, Japanese bulrush (Schoenoplectus juncoides); details: for Herbicidal effect, B: Japanese bulrush: amount of applied herbicide 320 g/ha
Outline: as §1

oval-leafed pondweed [3] = test: Test Example 1: herbicidal activity, application before weed generation under submerged conditions (Table 16, symbol C); format: in vivo, oval-leafed pondweed (Monochoria vaginalis); details: for Herbicidal effect, C: oval-leafed pondweed: amount of applied herbicide 320 g/ha
Outline: as §1

late watergrass [4] = test: Test Example 2: herbicidal activity, application during weed generation under submerged conditions (Table 17, symbol A); format: in vivo, late watergrass (Echinochloa oryzicola); details: for herbicidal effect rating, A: late watergrass: application during weed generation, submerged conditions; for herbicidal effect grade, A: late watergrass: application during weed generation under submerged conditions, amount of applied herbicide 320 g/ha
Outline: (§2)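 3-wk visual-criteria score after one water-surface dose. Emulsion formulation, water-diluted to set rate; applied at 1–2 leaf stage; alluvial soil, 4 cm standing water; seeds co-sown; greenhouse 25–30° C.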

Japanese bulrush [5] = test: Test Example 2: herbicidal activity, application during weed generation under submerged conditions (Table 17, symbol B); format: in vivo, Japanese bulrush (Schoenoplectus juncoides); details: for herbicidal effect rating, B: Japanese bulrush: application during weed generation, submerged conditions; for herbicidal effect grade, B: Japanese bulrush: application during weed generation under submerged conditions, amount of applied herbicide 320 g/ha
Outline: as §2

oval-leafed pondweed [6] = test: Test Example 2: herbicidal activity, application during weed generation under submerged conditions (Table 17, symbol C); format: in vivo, oval-leafed pondweed (Monochoria vaginalis); details: for herbicidal effect rating, C: oval-leafed pondweed: application during weed generation, submerged conditions; for herbicidal effect grade, C: oval-leafed pondweed: application during weed generation under submerged conditions, amount of applied herbicide 320 g/ha
Outline: as §2

barnyard grass = test: Test Example 3: herbicidal effect by foliage application, Wagner pot (Table 18, symbol H); format: in vivo, barnyard grass (Echinochloa crus-galli); details: for herbicidal effect on H (barnyard grass), rating 0-5: 320 g/ha; for herbicidal effect on H: barnyard grass / Herbicidal effect on H (barnyard grass), foliage application: amount of applied herbicide 320 g/ha
Outline: (§3)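 Plants were sown in alluvial soil held under 0.1–0.5 cm standing water and grown 14 days in a greenhouse at 25–30 °C. An emulsifiable formulation, water-diluted to the set dose, was then sprayed onto the foliage, and effects were scored three weeks later using previously defined criteria.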

Chinese sprangletop = test: Test Example 3: herbicidal effect by foliage application, Wagner pot (Table 18, symbol D); format: in vivo, chinese sprangletop (Leptochloa chinensis); details: for herbicidal effect on D (Chinese sprangletop), rating 0-5: 320 g/ha; for herbicidal effect on D: Chinese sprangletop / Herbicidal effect on D (Chinese sprangletop), foliage application: amount of applied herbicide 320 g/ha
Outline: as §3

rice flat sedge = test: Test Example 3: herbicidal effect by foliage application, Wagner pot (Table 18, symbol E); format: in vivo, rice flat sedge (Cyperus iria); details: for herbicidal effect on E (rice flat sedge), rating 0-5: 320 g/ha; for herbicidal effect on E: rice flat sedge / Herbicidal effect on E (rice flat sedge), foliage application: amount of applied herbicide 320 g/ha
Outline: as §3

Structure (SMILES) | Herbicidal effect on A: late watergrass (grade 0-5) (late watergrass [1]; 320 g/ha applied herbicide) | Herbicidal effect on B: Japanese bulrush (grade 0-5) (Japanese bulrush [2]; 320 g/ha applied herbicide) | Herbicidal effect on C: oval-leafed pondweed (grade 0-5) (oval-leafed pondweed [3]; 320 g/ha applied herbicide) | herbicidal effect rating, A: late watergrass (late watergrass [4]; AAH 320 g/ha) | herbicidal effect rating, B: Japanese bulrush (Japanese bulrush [5]; AAH 320 g/ha) | herbicidal effect rating, C: oval-leafed pondweed (oval-leafed pondweed [6]; AAH 320 g/ha) | herbicidal effect on H: barnyard grass (barnyard grass) | herbicidal effect on D: Chinese sprangletop (Chinese sprangletop) | herbicidal effect on E: rice flat sedge (rice flat sedge) | also measured
C=CCCOc1ccc(-c2sc3ccccc3c2-c2c(O)c(C)nn(C)c2=O)cc1 [1-207] | 5 (Herbicidal rate of 90% or more (almost completely withered)) | 5 (Herbicidal rate of 90% or more (almost completely withered)) | 5 (Herbicidal rate of 90% or more (almost completely withered)) | 5 (Herbicidal rate of 90% or more (almost completely withered)) | 4 (Herbicidal rate of 70% or more and less than 90%) | 5 (Herbicidal rate of 90% or more (almost completely withered)) | – | – | – | herbicidal effect on H (barnyard grass), rating 0-5 (barnyard grass): 5 (Herbicidal rate of 90% or more (almost completely withered)); herbicidal effect on D (Chinese sprangletop), rating 0-5 (Chinese sprangletop): 5 (Herbicidal rate of 90% or more (almost completely withered)); herbicidal effect on E (rice flat sedge), rating 0-5 (rice flat sedge): 4 (Herbicidal rate of 70% or more and less than 90%)
Cc1nn(C)c(=O)c(-c2c(-c3ccc(OCCOCCCl)cc3)sc3ccccc23)c1O [1-227] | 5 (Herbicidal rate of 90% or more (almost completely withered)) | 5 (Herbicidal rate of 90% or more (almost completely withered)) | 5 (Herbicidal rate of 90% or more (almost completely withered)) | 4 (Herbicidal rate of 70% or more and less than 90%) | 3 (Herbicidal rate of 40% or more and less than 70%) | 3 (Herbicidal rate of 40% or more and less than 70%) | – | – | – | herbicidal effect on H (barnyard grass), rating 0-5 (barnyard grass): 5 (Herbicidal rate of 90% or more (almost completely withered)); herbicidal effect on D (Chinese sprangletop), rating 0-5 (Chinese sprangletop): 4 (Herbicidal rate of 70% or more and less than 90%); herbicidal effect on E (rice flat sedge), rating 0-5 (rice flat sedge): 4 (Herbicidal rate of 70% or more and less than 90%)
Cc1nn(C)c(=O)c(-c2c(-c3ccccc3)sc3ccc(-c4ccccc4)cc23)c1O [2-166] | – | – | – | – | – | – | – | – | – | Herbicidal effect on A: late watergrass (grade 0-5) (late watergrass [1]; 80 g/ha applied herbicide): 2 (Herbicidal rate of 20% or more and less than 40%); Herbicidal effect on B: Japanese bulrush (grade 0-5) (Japanese bulrush [2]; 80 g/ha applied herbicide): 0 (Herbicidal rate of 5% or less (almost no effect)); Herbicidal effect on C: oval-leafed pondweed (grade 0-5) (oval-leafed pondweed [3]; 80 g/ha applied herbicide): 0 (Herbicidal rate of 5% or less (almost no effect)); herbicidal effect rating, A: late watergrass (late watergrass [4]; AAH 80 g/ha): 0 (Herbicidal rate of 5% or less (almost no effect)); herbicidal effect rating, B: Japanese bulrush (Japanese bulrush [5]; AAH 80 g/ha): 3 (Herbicidal rate of 40% or more and less than 70%); herbicidal effect rating, C: oval-leafed pondweed (oval-leafed pondweed [6]; AAH 80 g/ha): 0 (Herbicidal rate of 5% or less (almost no effect))
Cc1nn(C)c(=O)c(-c2c(-c3ccc([S+]([O-])CC(F)F)cc3)sc3ccc(F)cc23)c1O (stereo not drawn) [2-264] | 4 (Herbicidal rate of 70% or more and less than 90%) | 4 (Herbicidal rate of 70% or more and less than 90%) | 3 (Herbicidal rate of 40% or more and less than 70%) | 3 (Herbicidal rate of 40% or more and less than 70%) | 3 (Herbicidal rate of 40% or more and less than 70%) | 3 (Herbicidal rate of 40% or more and less than 70%) | 5 (Herbicidal rate of 90% or more (almost completely withered)) | 3 (Herbicidal rate of 40% or more and less than 70%) | 5 (Herbicidal rate of 90% or more (almost completely withered)) | –
Cc1nn(C)c(=O)c(-c2c(-c3ccc(C[S+](C)[O-])cc3)sc3ccc(F)cc23)c1O (stereo not drawn) [2-332] | 2 (Herbicidal rate of 20% or more and less than 40%) | 0 (Herbicidal rate of 5% or less (almost no effect)) | 0 (Herbicidal rate of 5% or less (almost no effect)) | 3 (Herbicidal rate of 40% or more and less than 70%) | 0 (Herbicidal rate of 5% or less (almost no effect)) | 0 (Herbicidal rate of 5% or less (almost no effect)) | 5 (Herbicidal rate of 90% or more (almost completely withered)) | 3 (Herbicidal rate of 40% or more and less than 70%) | 3 (Herbicidal rate of 40% or more and less than 70%) | –
CCCC(=O)Oc1c(C)nn(C)c(=O)c1-c1c(-c2ccc(OC)c(Cl)c2)sc2ccc(F)cc12 [2-371] | 3 (Herbicidal rate of 40% or more and less than 70%) | 3 (Herbicidal rate of 40% or more and less than 70%) | 4 (Herbicidal rate of 70% or more and less than 90%) | 0 (Herbicidal rate of 5% or less (almost no effect)) | 3 (Herbicidal rate of 40% or more and less than 70%) | 4 (Herbicidal rate of 70% or more and less than 90%) | 4 (Herbicidal rate of 70% or more and less than 90%) | 4 (Herbicidal rate of 70% or more and less than 90%) | 4 (Herbicidal rate of 70% or more and less than 90%) | –
CCCOc1ccc(-c2oc3ccc(C)cc3c2-c2c(OC(=O)CCC)c(C)nn(C)c2=O)cc1 [9-050] | – | – | – | – | – | – | – | – | – | Herbicidal effect, A: late watergrass (late watergrass [1]): 5 (Herbicidal rate of 90% or more (almost completely withered)); Herbicidal effect, B: Japanese bulrush (Japanese bulrush [2]): 5 (Herbicidal rate of 90% or more (almost completely withered)); Herbicidal effect, C: oval-leafed pondweed (oval-leafed pondweed [3]): 5 (Herbicidal rate of 90% or more (almost completely withered)); herbicidal effect grade, A: late watergrass (late watergrass [4]): 3 (Herbicidal rate of 40% or more and less than 70%); herbicidal effect grade, B: Japanese bulrush (Japanese bulrush [5]): 3 (Herbicidal rate of 40% or more and less than 70%); herbicidal effect grade, C: oval-leafed pondweed (oval-leafed pondweed [6]): 5 (Herbicidal rate of 90% or more (almost completely withered)); Herbicidal effect on H (barnyard grass), foliage application (barnyard grass): 4 (Herbicidal rate of 70% or more and less than 90%); Herbicidal effect on D (Chinese sprangletop), foliage application (Chinese sprangletop): 3 (Herbicidal rate of 40% or more and less than 70%); Herbicidal effect on E (rice flat sedge), foliage application (rice flat sedge): 5 (Herbicidal rate of 90% or more (almost completely withered))
CCCC(=O)Oc1c(C)nn(C)c(=O)c1-c1c(-c2ccc(OCC(C)C)cc2)oc2ccc(C)cc12 [9-052] | – | – | – | – | – | – | – | – | – | Herbicidal effect, A: late watergrass (late watergrass [1]): 5 (Herbicidal rate of 90% or more (almost completely withered)); Herbicidal effect, B: Japanese bulrush (Japanese bulrush [2]): 5 (Herbicidal rate of 90% or more (almost completely withered)); Herbicidal effect, C: oval-leafed pondweed (oval-leafed pondweed [3]): 4 (Herbicidal rate of 70% or more and less than 90%); herbicidal effect grade, A: late watergrass (late watergrass [4]): 3 (Herbicidal rate of 40% or more and less than 70%); herbicidal effect grade, B: Japanese bulrush (Japanese bulrush [5]): 3 (Herbicidal rate of 40% or more and less than 70%); herbicidal effect grade, C: oval-leafed pondweed (oval-leafed pondweed [6]): 4 (Herbicidal rate of 70% or more and less than 90%); Herbicidal effect on H (barnyard grass), foliage application (barnyard grass): 5 (Herbicidal rate of 90% or more (almost completely withered)); Herbicidal effect on D (Chinese sprangletop), foliage application (Chinese sprangletop): 0 (Herbicidal rate of 5% or less (almost no effect)); Herbicidal effect on E (rice flat sedge), foliage application (rice flat sedge): 4 (Herbicidal rate of 70% or more and less than 90%)
